Experimental data: patent US20240246964A1 (Arbutus Biopharma Corporation, priority 2021, published 2024)

Target: human PD-L1 (Homo sapiens (Human), UniProt Q9NZQ7)
Test: T cell activation luciferase reporter cell culture system (T Cell Activation Assay)
Type: cell-based
Conditions: luciferase reporter assay; PD-L1 aAPC/CHO-K1 cells with PD-1 effector Jurkat T cells

Sequence of human PD-L1 (Q9NZQ7 19-290): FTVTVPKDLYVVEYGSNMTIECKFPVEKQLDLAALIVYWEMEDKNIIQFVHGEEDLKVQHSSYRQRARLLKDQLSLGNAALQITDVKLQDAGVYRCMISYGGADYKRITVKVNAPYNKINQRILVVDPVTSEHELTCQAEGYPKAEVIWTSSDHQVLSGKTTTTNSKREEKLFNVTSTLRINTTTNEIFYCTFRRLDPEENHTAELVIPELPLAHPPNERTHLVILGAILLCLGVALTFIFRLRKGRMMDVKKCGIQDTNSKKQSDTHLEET

Row | Structure (SMILES) | EC50
1 | COc1cc(-c2nccc(-c3cccc(-c4ccc(CNC[C@@H]5CCC(=O)N5)c(OC)n4)c3Cl)c2Cl)cc(F)c1CNC[C@H](C)O [Cmpd 80, (S)-5-((((6-(2-chloro-3-(3-chloro-2-(3-fluoro-4-((((S)-2-hydroxypropyl)amino)methyl)-5-methoxyphenyl)pyridin-4-yl)phenyl)-2-methoxypyridin-3-yl)methyl)amino)methyl)pyrrolidin-2-one] | 46.2 nM
2 | COc1cc(-c2nccc(-c3cccc(-c4ccc(CNCCO)c(OC)n4)c3Cl)c2Cl)cc2c1CN(CCCF)CC2 [Cmpd 84, 2-(((6-(2-chloro-3-(3-chloro-2-(2-(3-fluoropropyl)-8-methoxy-1,2,3,4-tetrahydroisoquinolin-6-yl)pyridin-4-yl)phenyl)-2-methoxypyridin-3-yl)methyl)amino)ethan-1-ol] | 71 nM
3 | COc1cc(-c2nccc(-c3cccc(-c4ccc(CNCCO)c(OC)n4)c3Cl)c2Cl)cc2c1CN(CCC1CCNCC1)CC2 [Cmpd 85, 2-(((6-(2-chloro-3-(3-chloro-2-(8-methoxy-2-(2-(piperidin-4-yl)ethyl)-1,2,3,4-tetrahydroisoquinolin-6-yl)pyridin-4-yl)phenyl)-2-methoxypyridin-3-yl)methyl)amino)ethan-1-ol] | 142 nM
4 | COc1cc(-c2nccc(-c3cccc(-c4cc(Cl)c(CNC[C@@H]5CCC(=O)N5)c(OC)n4)c3Cl)c2Cl)cc2c1CN(C[C@H](C)O)CC2 [Cmpd 86, (S)-5-((((4-chloro-6-(2-chloro-3-(3-chloro-2-(2-((S)-2-hydroxypropyl)-8-methoxy-1,2,3,4-tetrahydroisoquinolin-6-yl)pyridin-4-yl)phenyl)-2-methoxypyridin-3-yl)methyl)amino)methyl)pyrrolidin-2-one] | 27.5 nM
5 | COc1cc(-c2nccc(-c3cccc(-c4ccc5c(CN(C)C6CCN(C(C)=O)CC6)cn(C)c5n4)c3Cl)c2Cl)ccc1CNC[C@@H]1CCC(=O)N1 [Cmpd 92, (S)-5-(((4-(4-(3-(3-(((1-acetylpiperidin-4-yl)(methyl)amino)methyl)-1-methyl-1H-pyrrolo[2,3-b]pyridin-6-yl)-2-chlorophenyl)-3-chloropyridin-2-yl)-2-methoxybenzyl)amino)methyl)pyrrolidin-2-one] | 10.1 nM
6 | COc1nc(-c2cccc(-c3ccnc(-c4cc5c(=O)n(C)c(CNC6CC(C)(O)C6)nn5c4)c3Cl)c2Cl)ccc1CNC[C@@H]1CCC(=O)N1 (stereo partly drawn) [Cmpd 102, (S)-6-(3-chloro-4-(2-chloro-3-(6-methoxy-5-((((5-oxopyrrolidin-2-yl)methyl)amino)methyl)pyridin-2-yl)phenyl)pyridin-2-yl)-2-(((3-hydroxy-3-methylcyclobutyl)amino)methyl)-3-methylpyrrolo[2,1-f][1,2,4]triazin-4(3H)-one] | 342 nM
7 | COc1cc(-c2nccc(-c3cccc(-c4cc(Cl)c(CNC[C@@H]5CCC(=O)N5)c(OC)n4)c3Cl)c2Cl)cc2c1CN(C[C@@H](C)O)CC2 [Cmpd 104, (S)-5-((((4-chloro-6-(2-chloro-3-(3-chloro-2-(2-((R)-2-hydroxypropyl)-8-methoxy-1,2,3,4-tetrahydroisoquinolin-6-yl)pyridin-4-yl)phenyl)-2-methoxypyridin-3-yl)methyl)amino)methyl)pyrrolidin-2-one] | 30.7 nM
8 | COc1nc(-c2cccc(-c3ccnc(-c4cnn(C5CNC5)c4)c3Cl)c2Cl)ccc1CNC[C@@H]1CCC(=O)N1 [Cmpd 119, (S)-5-((((6-(3-(2-(1-(azetidin-3-yl)-1H-pyrazol-4-yl)-3-chloropyridin-4-yl)-2-chlorophenyl)-2-methoxypyridin-3-yl)methyl)amino)methyl)pyrrolidin-2-one] | 370 nM

The next lines start with the values.

Row | EC50 | Structure (SMILES)
9 | 31.4 nM | COc1cc(-c2nccc(-c3cccc(-c4ccc(CNC[C@@H]5CCC(=O)N5)c(OC)n4)c3Cl)c2Cl)cc(F)c1CNC[C@@H](C)O [Cmpd 81, (S)-5-((((6-(2-chloro-3-(3-chloro-2-(3-fluoro-4-((((R)-2-hydroxypropyl)amino)methyl)-5-methoxyphenyl)pyridin-4-yl)phenyl)-2-methoxypyridin-3-yl)methyl)amino)methyl)pyrrolidin-2-one]
10 | 60.5 nM | COc1cc(-c2nccc(-c3cccc(-c4ccc(CNC[C@@H]5CCC(=O)N5)c(OC)n4)c3Cl)c2Cl)cc(F)c1CNC(C)C [Cmpd 82, (S)-5-((((6-(2-chloro-3-(3-chloro-2-(3-fluoro-4-((isopropylamino)methyl)-5-methoxyphenyl)pyridin-4-yl)phenyl)-2-methoxypyridin-3-yl)methyl)amino)methyl)pyrrolidin-2-one]
11 | 66.2 nM | COc1cc(-c2nccc(-c3cccc(-c4ccc(CNC[C@@H]5CCC(=O)N5)c(OC)n4)c3Cl)c2Cl)cc(F)c1CNCC(C)C [Cmpd 83, (S)-5-((((6-(2-chloro-3-(3-chloro-2-(3-fluoro-4-((isobutylamino)methyl)-5-methoxyphenyl)pyridin-4-yl)phenyl)-2-methoxypyridin-3-yl)methyl)amino)methyl)pyrrolidin-2-one]
12 | 24.9 nM | COc1cc(-c2nccc(-c3cccc(-c4ccc(CNC[C@@H]5CCC(=O)N5)c(OC)n4)c3Cl)c2Cl)ccc1CN1CC2(CNC(=O)C2)C1 [Cmpd 88, (S)-2-(4-(3-chloro-4-(2-chloro-3-(6-methoxy-5-((((5-oxopyrrolidin-2-yl)methyl)amino)methyl)pyridin-2-yl)phenyl)pyridin-2-yl)-2-methoxybenzyl)-2,6-diazaspiro[3.4]octan-7-one]
13 | 44.2 nM | COc1cc(-c2nccc(-c3cccc(-c4ccc5c(CNC[C@@H]6CCCO6)cn(C)c5n4)c3Cl)c2Cl)ccc1CNC[C@@H]1CCC(=O)N1 [Cmpd 93, (S)-5-(((4-(3-chloro-4-(2-chloro-3-(1-methyl-3-(((((S)-tetrahydrofuran-2-yl)methyl)amino)methyl)-1H-pyrrolo[2,3-b]pyridin-6-yl)phenyl)pyridin-2-yl)-2-methoxybenzyl)amino)methyl)pyrrolidin-2-one]
14 | 191 nM | COc1cc(-c2nccc(-c3cccc(-c4cc(Cl)c(CNC[C@@H]5CCC(=O)N5)c(OC)n4)c3Cl)c2Cl)ccc1CNCC(=O)O [Cmpd 105, (S)-(4-(3-chloro-4-(2-chloro-3-(4-chloro-6-methoxy-5-((((5-oxopyrrolidin-2-yl)methyl)amino)methyl)pyridin-2-yl)phenyl)pyridin-2-yl)-2-methoxybenzyl)glycine]
15 | 253 nM | COc1cc(-c2nccc(-c3cccc(-c4ccc(CNC[C@@H]5CCC(=O)N5)c(OC)n4)c3Cl)c2Cl)ccc1CNCC(=O)O [Cmpd 107, (S)-(4-(3-chloro-4-(2-chloro-3-(6-methoxy-5-((((5-oxopyrrolidin-2-yl)methyl)amino)methyl)pyridin-2-yl)phenyl)pyridin-2-yl)-2-methoxybenzyl)glycine]
16 | 140 nM | COc1cc(-c2nccc(-c3cccc(-c4ccc(CNC[C@@H]5CCC(=O)N5)c(OC)n4)c3Cl)c2Cl)ccc1CNCC(=O)OC(C)C [Cmpd 108, isopropyl (S)-(4-(3-chloro-4-(2-chloro-3-(6-methoxy-5-((((5-oxopyrrolidin-2-yl)methyl)amino)methyl)pyridin-2-yl)phenyl)pyridin-2-yl)-2-methoxybenzyl)glycinate]
17 | 27.9 nM | COc1cc(-c2nccc(-c3cccc(-c4ccc(CNC[C@@H]5CCC(=O)N5)c(OC)n4)c3Cl)c2Cl)ccc1CNC1CCN(C(C)=O)CC1 [Cmpd 109, (S)-5-((((6-(3-(2-(4-(((1-acetylpiperidin-4-yl)amino)methyl)-3-methoxyphenyl)-3-chloropyridin-4-yl)-2-chlorophenyl)-2-methoxypyridin-3-yl)methyl)amino)methyl)pyrrolidin-2-one]
